Results on one molecule are retold here after paper PMC5689723, “Targeting aggressive prostate cancer-associated CD44v6 using phage display selected peptides” (Oncotarget, 2017).

By IC50 is commonly meant the point on the concentration scale where inhibition reaches its midpoint.

The subject of the assay is v6A3 cells. Description: MTT assay, v6A3 cells. In kind it is cell-based. Particulars: Homo sapiens, PC-3M, 48 h, 5000 cells per well, triplicate, 562 nm, after continuous passage for one month, P< 0.05 vs PC3M, read-out: DOX IC50 of v6A3. (In general: Tetrazolium dyes change colour on reduction, which living cells bring about.)

As for `COc1cccc2c1C(=O)c1c(O)c3c(c(O)c1C2=O)C[C@@](O)(C(=O)CO)C[C@@H]3O[C@H]1C[C@H](N)[C@H](O)[C@H](C)O1` [DOX, doxorubicin], the half-inhibitory concentration (IC50) amounted to 140 nM.
